Reference: patent US20250313533A1, “QUINOLINE CARBOXYLIC ACID ESTER COMPOUND AND PREPARATION METHOD AND USE THEREOF” (priority 2019, published 2025)

Key:
[1] = system: pathogenic bacteria causing black rot in Chinese cabbages; test: In vitro bactericidal activity, black rot in Chinese cabbages; format: cell-based, xanthomonas; conditions: Xanthomonas, read-out: inhibitory rate; for inhibition at 1 ppm: dosage 1 ppm; for inhibition at 5 ppm: dosage 5 ppm
Description: (§1) Under aseptic conditions, equal amounts of NB culture medium were added to test tubes, and fixed amounts of the sample solutions were pipetted into the above test tubes in an ascending order of concentrations, respectively. The mixtures were well mixed and added with equal amounts of a bacterial suspension in log phase.
(§2) Each step of the procedure was repeated 4 times. After mixing, the mixture samples were incubated in the dark in a shaking incubator at 25° C. The OD values were measured when the bacteria were in log phase.

cucumber seedlings = test: Safety for plant growth after application; format: in vivo; conditions: dosage 200 ppm
Source text: Taking indoor potted cucumber seedlings as an example, the influence of the compound disclosed herein on growth rate of plant height, chlorophyll content, leaf area, etc. of crops was mainly evaluated.
The results of safety and health-care effect of the compounds of the present disclosure on cucumber seedlings are shown in the following table 1: […]

[2] = system: pathogenic bacteria causing stem rot in sweet potatoes; test: In vitro bactericidal activity, stem rot in sweet potatoes; format: cell-based, dikia; conditions: read-out: inhibitory rate; for inhibition at 1 ppm: dosage 1 ppm; for inhibition at 5 ppm: dosage 5 ppm
Description: as §1, §2

[3] = system: pathogenic bacteria causing fruit blotch in watermelons; test: In vitro bactericidal activity, fruit blotch in watermelons; format: cell-based, acidovorax; conditions: read-out: inhibitory rate; for inhibition at 1 ppm: dosage 1 ppm; for inhibition at 5 ppm: dosage 5 ppm
Description: as §1, §2

[4] = system: pathogenic bacteria causing black shank in potatoes; test: In vitro bactericidal activity, black shank in potatoes; format: cell-based; conditions: read-out: inhibitory rate; for inhibition at 1 ppm: dosage 1 ppm; for inhibition at 5 ppm: dosage 5 ppm
Description: as §1, §2

[5] = system: soft rot in Chinese cabbages; test: whole plant or invertebrate; conditions: 48 h, read-out: efficacy against soft rot in Chinese cabbages
[6] = system: bacterial wilt in tobacco; test: whole plant or invertebrate; conditions: Nicotiana tabacum, read-out: efficacy against bacterial wilt in tobacco
[7] = system: pathogenic bacteria causing bacterial wilt in tobacco; test: whole plant or invertebrate; format: cell-based, ralstonia; conditions: read-out: inhibitory rate
[8] = system: pathogenic bacteria causing fire blight in pears; test: In vitro bactericidal activity, fire blight in pears; format: cell-based, erwinia; conditions: Erwinia, read-out: inhibitory rate; for inhibition at 1 ppm: dosage 1 ppm; for inhibition at 5 ppm: dosage 5 ppm
Description: as §1, §2

[9] = system: stem rot in sweet potatoes; test: whole plant or invertebrate; conditions: read-out: efficacy against stem rot in sweet potatoes
bacterial blight in rice = test: whole plant or invertebrate; conditions: Oryza sativa, read-out: efficacy against bacterial blight in rice
[10] = system: pathogenic bacteria causing bacterial angular leaf spot in cucumbers; test: In vitro bactericidal activity, bacterial angular leaf spot in cucumbers; format: cell-based, pseudomonas; conditions: read-out: inhibitory rate; for inhibition at 1 ppm: dosage 1 ppm; for inhibition at 5 ppm: dosage 5 ppm
Description: as §1, §2

[11] = system: fruit blotch in watermelons; test: whole plant or invertebrate; conditions: read-out: efficacy against fruit blotch in watermelons
[12] = system: pathogenic bacteria causing bacterial wilt in cassava; test: organism not typed; format: cell-based; conditions: read-out: inhibitory rate
[13] = system: pathogenic bacteria causing bacterial blight in rice; test: whole plant or invertebrate; format: cell-based, xanthomonas; conditions: read-out: inhibitory rate
black shank in potatoes = test: Living crops in vivo protective activity, potatoes (root irrigation); conditions: Solanum tuberosum, read-out: efficacy against black shank in potatoes; for pest or weed control at 5 ppm: dosage 5 ppm; for pest or weed control at 10 ppm: dosage 10 ppm
Description: Root irrigation was carried out on the potatoes for tests according to the designed concentration of the agents. The dosage for each plant was 200 mL and was kept consistent (also for the control). The black shank bacteria were inoculated on the second day after the application. The results were investigated according to the disease condition.

Compound | inhibition at 1 ppm [1] [%] | inhibition at 5 ppm [1] [%] | safety for plant growth (discoloration, necrosis, wilt, malformation) (cucumber seedlings) | inhibition at 5 ppm [2] [%] | inhibition at 5 ppm [3] [%] | inhibition at 5 ppm [4] [%] | pest or weed control at 10 ppm [5] [%] | pest or weed control at 5 ppm [6] [%] | pest or weed control at 10 ppm [6] [%] | inhibition at 5 ppm [7] [%] | inhibition at 5 ppm [8] [%] | pest or weed control at 5 ppm [9] [%] | pest or weed control at 10 ppm [9] [%] | pest or weed control at 10 ppm (bacterial blight in rice) [%] | inhibition at 5 ppm [10] [%] | pest or weed control at 5 ppm [11] [%] | pest or weed control at 10 ppm [11] [%] | inhibition at 5 ppm [12] [%] | inhibition at 5 ppm [13] [%] | pest or weed control at 10 ppm (black shank in potatoes) [%] | further results
COCOC(=O)c1cn(C2CC2)c2ccc(F)cc2c1=O [Compound 1, methoxymethyl 1-cyclopropyl-6-fluoro-4-oxo-1,4-dihydroquinoline-3-carboxylate] | ≥ 80 | ≥ 90 | safe for plant growth | ≥ 90 | ≥ 90 | ≥ 90 | ≥ 90 | ≥ 90 | ≥ 90 | ≥ 90 | ≥ 90 | ≥ 90 | ≥ 90 | ≥ 90 | ≥ 90 | ≥ 90 | ≥ 90 | ≥ 90 | ≥ 90 | ≥ 90 | inhibition at 1 ppm [2]: ≥ 80%; inhibition at 1 ppm [3]: ≥ 80%; inhibition at 1 ppm [4]: ≥ 80%; pest or weed control at 5 ppm [5]: ≥ 80%; inhibition at 1 ppm [7]: ≥ 80%; inhibition at 1 ppm [8]: ≥ 80%; pest or weed control at 5 ppm (bacterial blight in rice): ≥ 80%; inhibition at 1 ppm [10]: ≥ 80%; inhibition at 1 ppm [12]: ≥ 80%; inhibition at 1 ppm [13]: ≥ 80%; pest or weed control at 5 ppm (black shank in potatoes): ≥ 80%
CCOCOC(=O)c1cn(C2CC2)c2ccc(F)cc2c1=O [Compound 2] | – | ≥ 90 | safe for plant growth | ≥ 90 | ≥ 90 | ≥ 90 | ≥ 90 | ≥ 90 | ≥ 90 | ≥ 90 | ≥ 90 | ≥ 90 | ≥ 90 | ≥ 90 | ≥ 90 | ≥ 90 | ≥ 90 | ≥ 90 | ≥ 90 | ≥ 90 | –
O=C(OCCCO)c1cn(C2CC2)c2ccc(F)cc2c1=O [Compound 18] | ≥ 80 | ≥ 90 | safe for plant growth | ≥ 90 | ≥ 90 | ≥ 90 | ≥ 90 | ≥ 90 | ≥ 90 | ≥ 90 | ≥ 90 | ≥ 90 | ≥ 90 | ≥ 90 | ≥ 90 | ≥ 90 | ≥ 90 | ≥ 90 | ≥ 90 | ≥ 90 | inhibition at 1 ppm [2]: ≥ 80%; inhibition at 1 ppm [3]: ≥ 80%; inhibition at 1 ppm [4]: ≥ 80%; pest or weed control at 5 ppm [5]: ≥ 80%; inhibition at 1 ppm [7]: ≥ 80%; inhibition at 1 ppm [8]: ≥ 80%; pest or weed control at 5 ppm (bacterial blight in rice): ≥ 80%; inhibition at 1 ppm [10]: ≥ 80%; inhibition at 1 ppm [12]: ≥ 80%; inhibition at 1 ppm [13]: ≥ 80%; pest or weed control at 5 ppm (black shank in potatoes): ≥ 80%
O=C(OCCO)c1cn(C2CC2)c2ccc(Cl)cc2c1=O [Compound 44] | ≥ 80 | ≥ 90 | safe for plant growth | ≥ 90 | ≥ 90 | ≥ 90 | ≥ 90 | ≥ 90 | ≥ 90 | ≥ 90 | ≥ 90 | ≥ 90 | ≥ 90 | ≥ 90 | ≥ 90 | ≥ 90 | ≥ 90 | ≥ 90 | ≥ 90 | ≥ 90 | inhibition at 1 ppm [2]: ≥ 80%; inhibition at 1 ppm [3]: ≥ 80%; inhibition at 1 ppm [4]: ≥ 80%; pest or weed control at 5 ppm [5]: ≥ 80%; inhibition at 1 ppm [7]: ≥ 80%; inhibition at 1 ppm [8]: ≥ 80%; pest or weed control at 5 ppm (bacterial blight in rice): ≥ 80%; inhibition at 1 ppm [10]: ≥ 80%; inhibition at 1 ppm [12]: ≥ 80%; inhibition at 1 ppm [13]: ≥ 80%; pest or weed control at 5 ppm (black shank in potatoes): ≥ 80%
COCCOC(=O)c1cn(C2CC2)c2ccc(Cl)cc2c1=O [Compound 45, 2-methoxyethyl 6-chloro-1-cyclopropyl-4-oxo-1,4-dihydroquinoline-3-carboxylate] | ≥ 90 | ≥ 90 | safe for plant growth | ≥ 90 | ≥ 90 | ≥ 90 | ≥ 90 | ≥ 90 | ≥ 90 | ≥ 90 | ≥ 90 | ≥ 90 | ≥ 90 | ≥ 90 | ≥ 90 | ≥ 90 | ≥ 90 | ≥ 90 | ≥ 90 | ≥ 90 | inhibition at 1 ppm [2]: ≥ 90%; inhibition at 1 ppm [3]: ≥ 90%; inhibition at 1 ppm [4]: ≥ 90%; pest or weed control at 5 ppm [5]: ≥ 80%; inhibition at 1 ppm [7]: ≥ 90%; inhibition at 1 ppm [8]: ≥ 90%; pest or weed control at 5 ppm (bacterial blight in rice): ≥ 80%; inhibition at 1 ppm [10]: ≥ 90%; inhibition at 1 ppm [12]: ≥ 90%; inhibition at 1 ppm [13]: ≥ 90%; pest or weed control at 5 ppm (black shank in potatoes): ≥ 80%
